The values below come from the supplement of paper PMC10307832.

Common to all, as to test: relative viability (nuclei count vs DMSO), 5 days (fraction); higher = more cells survive
Compound in test [1]: O=C(O)c1ccc2c(c1)nc(Nc1cccc(Cl)c1)c1ccncc12 [Silmitasertib] + CC1(C)CCC(c2ccc(Cl)cc2)=C(CN2CCN(c3ccc(C(=O)NS(=O)(=O)c4ccc(N[C@H](CCN5CCOCC5)CSc5ccccc5)c(S(=O)(=O)C(F)(F)F)c4)cc3)CC2)C1 [Navitoclax] (partner 0.5 µM)
The method, boiled down: (§1)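 After 5 days of treatment, lung cancer cells in 1536-well plates were fixed and stained in a single step (final 0.05% Triton X-100, 1% formaldehyde, 1 ug/ml Hoechst) and their nuclei counted on 4× images. Treatment had been applied by pin tool the day after seeding as one drug alone or as a fixed anchor-drug dose with five library-drug doses (not always all listed) in √10 steps. Relative viability is the nuclei count of treated wells divided by that of vehicle wells, and values are medians of duplicate plates.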

Compound in test [2]: O=C(O)c1ccc2c(c1)nc(Nc1cccc(Cl)c1)c1ccncc12 [Silmitasertib] + COc1cc2c(Oc3ccc(NC(=O)C4(C(=O)Nc5ccc(F)cc5)CC4)cc3F)ccnc2cc1OCCCN1CCOCC1 [Foretinib] (partner 0.25 µM)
The essentials: as §1

Compound in test [3]: O=C(O)c1ccc2c(c1)nc(Nc1cccc(Cl)c1)c1ccncc12 [Silmitasertib] + Cc1nc(Nc2ncc(C(=O)Nc3c(C)cccc3Cl)s2)cc(N2CCN(CCO)CC2)n1 [Dasatinib] (partner 0.075 µM)
The essentials: as §1

Compound in test [4]: O=C(O)c1ccc2c(c1)nc(Nc1cccc(Cl)c1)c1ccncc12 [Silmitasertib] + Nc1ncn([C@H]2C[C@H](O)[C@@H](CO)O2)c(=O)n1 [Decitabine] (partner 2 µM)
The method, boiled down: as §1

Compound in the test “Silmitasertib + Olaparib”: O=C(O)c1ccc2c(c1)nc(Nc1cccc(Cl)c1)c1ccncc12 [Silmitasertib] + O=C(c1cc(Cc2n[nH]c(=O)c3ccccc23)ccc1F)N1CCN(C(=O)C2CC2)CC1 [Olaparib] (partner 8 µM)
The essentials:
as §1

For the cell line NCI-H838, the relative viability in test [1] (first compound 0.04 µM) is 1.36; in test [1] (first compound 1.265 µM), 1.29; in test [1] (first compound 4 µM), 0.929; in test [2] (first compound 0.04 µM) it was 1.16; in test [2] (first compound 1.265 µM), 0.996; in test [2] (first compound 4 µM) it was 0.589. Besides, the relative viability in test [3] (first compound 0.04 µM) amounted to 0.323; in test [3] (first compound 0.4 µM), 0.325; in test [3] (first compound 1.265 µM) it was 0.372; in test [3] (first compound 4 µM) it was 0.254; in test [4] (first compound 0.04 µM), 0.459; in test [4] (first compound 0.4 µM), 0.427. Moreover, the relative viability in test [4] (first compound 1.265 µM) is 0.402; in test [4] (first compound 4 µM) it was 0.341; with Silmitasertib + Olaparib (first compound 0.04 µM) it was 0.849; in the test with Silmitasertib + Olaparib (first compound 0.4 µM), 0.521; in the test with Silmitasertib + Olaparib (first compound 1.265 µM), 0.635; with Silmitasertib + Olaparib (first compound 4 µM), 0.491.
With NCI-H3122, the relative viability in test [1] (first compound 0.04 µM) was found to be 1.01; in test [1] (first compound 0.4 µM), 0.996; in test [1] (first compound 1.265 µM), 1.01; in test [1] (first compound 4 µM), 1.08; in test [2] (first compound 0.04 µM) it was 0.821; in test [2] (first compound 0.4 µM), 0.86. The relative viability in test [2] (first compound 1.265 µM) is 0.982; in test [2] (first compound 4 µM), 0.947; in test [3] (first compound 0.04 µM), 0.807; in test [3] (first compound 0.4 µM), 0.706; in test [3] (first compound 1.265 µM), 0.84; in test [3] (first compound 4 µM), 0.834. The relative viability in test [4] (first compound 0.04 µM) was found to be 0.514; in test [4] (first compound 0.4 µM) it was 0.337; in test [4] (first compound 1.265 µM), 0.416; in test [4] (first compound 4 µM), 0.511; in the test with Silmitasertib + Olaparib (first compound 0.04 µM) it was 0.675; with Silmitasertib + Olaparib (first compound 0.4 µM), 0.371. Further, the relative viability with Silmitasertib + Olaparib (first compound 1.265 µM) turned out to be 0.616; in the test with Silmitasertib + Olaparib (first compound 4 µM) it was 0.644.
For SK-MES-1, the relative viability in test [1] (first compound 0.04 µM) worked out at 1.27; in test [1] (first compound 0.4 µM), 1.1; in test [1] (first compound 1.265 µM), 1.15; in test [1] (first compound 4 µM), 0.576; in test [2] (first compound 0.04 µM) it was 1.12; in test [2] (first compound 0.4 µM), 0.885. Also, the relative viability in test [2] (first compound 1.265 µM) was determined as 0.946; in test [2] (first compound 4 µM) it was 0.535; in test [3] (first compound 0.04 µM) it was 0.47; in test [3] (first compound 0.4 µM), 0.283; in test [3] (first compound 1.265 µM), 0.294; in test [3] (first compound 4 µM), 0.232. Further, the relative viability in test [4] (first compound 0.04 µM) came out at 0.396; in test [4] (first compound 0.4 µM) it was 0.382; in test [4] (first compound 1.265 µM), 0.328; in test [4] (first compound 4 µM), 0.209; in the test with Silmitasertib + Olaparib (first compound 0.04 µM) it was 0.777; with Silmitasertib + Olaparib (first compound 0.4 µM), 0.623. Besides, the relative viability was found to be 0.289 with Silmitasertib + Olaparib (first compound 1.265 µM) and 0.207 with Silmitasertib + Olaparib (first compound 4 µM).
Consider NCI-H1944, for which the relative viability in test [1] (first compound 0.04 µM) turned out to be 0.976; in test [1] (first compound 0.4 µM) it was 0.732; in test [1] (first compound 1.265 µM) it was 1.06; in test [1] (first compound 4 µM), 1.27; in test [2] (first compound 0.04 µM) it was 0.924; in test [2] (first compound 0.4 µM) it was 0.768. For the same cell line, the relative viability was 0.92 in test [2] (first compound 1.265 µM); 1 in test [2] (first compound 4 µM); 0.229 in test [3] (first compound 0.04 µM); 0.235 in test [3] (first compound 0.4 µM); 0.227 in test [3] (first compound 1.265 µM); 0.224 in test [3] (first compound 4 µM). Moreover, the relative viability in test [4] (first compound 0.04 µM) amounted to 0.442; in test [4] (first compound 0.4 µM), 0.467; in test [4] (first compound 1.265 µM), 0.46; in test [4] (first compound 4 µM), 0.497; with Silmitasertib + Olaparib (first compound 0.04 µM) it was 0.404; in the test with Silmitasertib + Olaparib (first compound 0.4 µM), 0.33. Moreover, the relative viability was determined as 0.495 with Silmitasertib + Olaparib (first compound 1.265 µM) and 0.587 in the test with Silmitasertib + Olaparib (first compound 4 µM).
For the cell line LK-2, the relative viability is 0.854 in test [1] (first compound 0.04 µM); 0.696 in test [1] (first compound 0.4 µM); 0.732 in test [1] (first compound 1.265 µM); 0.576 in test [1] (first compound 4 µM); 1.07 in test [2] (first compound 0.04 µM); 1.08 in test [2] (first compound 1.265 µM). Also, the relative viability is 0.818 in test [2] (first compound 4 µM); 0.328 in test [3] (first compound 0.04 µM); 0.309 in test [3] (first compound 1.265 µM); 0.321 in test [3] (first compound 4 µM); 0.312 in test [4] (first compound 0.04 µM); 0.194 in test [4] (first compound 1.265 µM). Besides, the relative viability in test [4] (first compound 4 µM) came out at 0.21; with Silmitasertib + Olaparib (first compound 0.04 µM), 0.798; with Silmitasertib + Olaparib (first compound 0.4 µM) it was 0.283; in the test with Silmitasertib + Olaparib (first compound 1.265 µM), 0.663; with Silmitasertib + Olaparib (first compound 4 µM), 0.346.
Consider PC-3 [JPC-3], for which the relative viability in test [1] (first compound 0.04 µM) worked out at 0.746; in test [1] (first compound 0.4 µM), 0.688; in test [1] (first compound 1.265 µM), 0.773; in test [1] (first compound 4 µM), 0.775; in test [2] (first compound 0.04 µM), 1.12; in test [2] (first compound 0.4 µM), 0.852. Besides, the relative viability stood at 1.14 in test [2] (first compound 1.265 µM); 0.998 in test [2] (first compound 4 µM); 1.04 in test [3] (first compound 0.04 µM); 0.628 in test [3] (first compound 0.4 µM); 1.03 in test [3] (first compound 1.265 µM); 0.899 in test [3] (first compound 4 µM). Further, the relative viability in test [4] (first compound 0.04 µM) was 0.968; in test [4] (first compound 0.4 µM), 0.846; in test [4] (first compound 1.265 µM) it was 0.836; in test [4] (first compound 4 µM), 0.723; with Silmitasertib + Olaparib (first compound 0.04 µM) it was 1.22; with Silmitasertib + Olaparib (first compound 0.4 µM), 0.737. The relative viability in the test with Silmitasertib + Olaparib (first compound 1.265 µM) worked out at 1.12; with Silmitasertib + Olaparib (first compound 4 µM), 1.13.
On to COR-L23, for which the relative viability in test [1] (first compound 0.04 µM) was 1.1; in test [1] (first compound 0.4 µM), 0.982; in test [1] (first compound 1.265 µM), 1.06; in test [1] (first compound 4 µM), 0.968; in test [2] (first compound 0.04 µM) it was 1.09; in test [2] (first compound 0.4 µM), 0.794. The relative viability in test [2] (first compound 1.265 µM) was 0.951; in test [2] (first compound 4 µM), 1.16; in test [3] (first compound 0.04 µM), 0.535; in test [3] (first compound 0.4 µM), 0.404; in test [3] (first compound 1.265 µM), 0.426; in test [3] (first compound 4 µM) it was 0.408. Further, the relative viability turned out to be 0.495 in test [4] (first compound 0.04 µM); 0.507 in test [4] (first compound 0.4 µM); 0.501 in test [4] (first compound 1.265 µM); 0.368 in test [4] (first compound 4 µM); 0.393 in the test with Silmitasertib + Olaparib (first compound 0.04 µM); 0.31 with Silmitasertib + Olaparib (first compound 0.4 µM). For the same cell line, the relative viability with Silmitasertib + Olaparib (first compound 1.265 µM) came out at 0.325; with Silmitasertib + Olaparib (first compound 4 µM), 0.283.
Take NCI-H1355: the relative viability in test [1] (first compound 0.04 µM) was 1.04; in test [1] (first compound 1.265 µM), 0.965; in test [1] (first compound 4 µM) it was 0.771; in test [2] (first compound 0.04 µM) it was 0.944; in test [2] (first compound 1.265 µM), 0.822; in test [2] (first compound 4 µM), 0.916. In addition, the relative viability in test [3] (first compound 0.04 µM) was 0.766; in test [3] (first compound 1.265 µM) it was 0.578; in test [3] (first compound 4 µM), 0.485; in test [4] (first compound 0.04 µM), 0.343; in test [4] (first compound 1.265 µM), 0.371; in test [4] (first compound 4 µM), 0.285. For the same cell line, the values for the relative viability in the test with Silmitasertib + Olaparib (first compound 0.04 µM), in the test with Silmitasertib + Olaparib (first compound 1.265 µM) and with Silmitasertib + Olaparib (first compound 4 µM) were 0.727, 0.698 and 0.615, respectively.
